Read-outs that look alike come from different tables or passages of the source.
Tests used:
[1] = test system: Phosphorylation of ERK1/2 in MIA PaCa-2 cells; assay: Phospho-ERK1/2 MSD assay in MIA PaCa-2 cells; type: cell-based; settings: read-out: p-ERK IC50 (2 h; MIA PaCa-2), 2 h compound treatment
Method in brief: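 MSD electrochemiluminescence readout of phospho-ERK1/2 in whole-cell lysates, IC50 by 4-parameter logistic fit. Compound titrations were applied for 2 or 4 h at 37 °C, 5% CO2, followed by 10 ng/mL EGF stimulation for 10 min before lysis.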

[2] = biological target: GDP-bound KRAS protein (aa 1-169), containing both G12C and C118A amino acid substitutions (Homo sapiens, UniProt P01116, C118A/G12C); assay: Coupled nucleotide exchange assay (SOS-mediated, AlphaScreen); type: biochemical; settings: 5 min compound pre-incubation; for IC50: read-out: Coupled exchange IC50 (5 min)
Sequence of GDP-bound KRAS protein (aa 1-169), containing both G12C and C118A amino acid substitutions (P01116 1-169 isoform P01116-2 G12C/C118A): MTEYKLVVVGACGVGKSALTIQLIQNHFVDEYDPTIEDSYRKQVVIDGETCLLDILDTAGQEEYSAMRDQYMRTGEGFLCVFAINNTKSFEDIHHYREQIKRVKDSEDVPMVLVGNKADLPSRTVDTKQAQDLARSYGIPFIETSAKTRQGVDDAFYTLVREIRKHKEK

IC50 ([1]; Homo sapiens, MIA PaCa-2, 2 h)	Coupled exchange IC50 (5 min) [2]	IC50 [1]	Structure (SMILES)	IC50 ([1]; Homo sapiens)	IC50 [2]
33 nM	0.035 | nda μM	–	C=CC(=O)N1C[C@@H](C)N(c2nc(=O)n(-c3c(C(C)C)ncnc3C(C)C)c3nc(-c4ccccc4F)c(Cl)cc23)[C@@H](C)C1 [Example 87-2, 6-chloro-4-((2R,6S)-2,6-dimethyl-4-(2-propenoyl)-1-piperazinyl)-1-(4,6-di(2-propanyl)-5-pyrimidinyl)-7-(2-fluorophenyl)pyrido[2,3-d]pyrimidin-2(1H)-one]	–	–
11 nM	0.034 | nda μM	–	C=CC(=O)N1C[C@H](C)N(c2nc(=O)n(-c3c(C(C)C)ncnc3C(C)C)c3nc(-c4ccccc4F)c(Cl)cc23)[C@@H](C)C1 [Example 87-1, 6-Chloro-4-((2S,6S)-2,6-dimethyl-4-(2-propenoyl)-1-piperazinyl)-1-(4,6-di(2-propanyl)-5-pyrimidinyl)-7-(2-fluorophenyl)pyrido[2,3-d]pyrimidin-2(1H)-one]	–	–
–	–	14 nM	C=CC(=O)N1CCN(c2nc(=O)n(-c3c(C)ccnc3C(C)C)c3nc(-c4c(N)cccc4F)c(Cl)cc23)[C@@H](C)C1 (atropisomer, axis not shown; (M)) [Example 73-1, (M)-7-(2-Amino-6-fluorophenyl)-6-chloro-1-(4-methyl-2-(2-propanyl)-3-pyridinyl)-4-((2S)-2-methyl-4-(2-propenoyl)-1-piperazinyl)pyrido[2,3-d]pyrimidin-2(1H)-one]	–	12 nM
281 nM	0.06 | nda μM	–	C=CC(=O)N1CCN(c2nc(=O)n(-c3c(C)ccnc3C(C)C)c3nc(-c4cc(C5CC5)ccc4F)c(Cl)cc23)[C@@H](C)C1 (atropisomer, axis not shown; (M)) [Example 73-9, (M)-6-chloro-7-(5-cyclopropyl-2-fluorophenyl)-1-(4-methyl-2-(2-propanyl)-3-pyridinyl)-4-((2S)-2-methyl-4-(2-propenoyl)-1-piperazinyl)pyrido[2,3-d]pyrimidin-2(1H)-one]	–	–
262 nM	0.254 | nda μM	–	C=CC(=O)N1CCN(c2nc(=O)n(-c3c(C(C)C)ncnc3C(C)C)c3nc(-c4ccc(C#N)cc4F)c(Cl)cc23)[C@@H](C)C1 [Example 87-4, 4-(6-chloro-1-(4,6-di(2-propanyl)-5-pyrimidinyl)-4-((2S)-2-methyl-4-(2-propenoyl)-1-piperazinyl)-2-oxo-1,2-dihydropyrido[2,3-d]pyrimidin-7-yl)-3-fluorobenzonitrile]	–	–
81 nM	0.133 | nda μM	–	C=CC(=O)N1CCN(c2nc(=O)n(-c3c(C)ccnc3C(C)C)c3nc(-c4ccccc4F)c(Cl)cc23)[C@@H](CO)C1 (single isomer, unassigned) [Example 78-14]	–	–

More lines, now with the values behind:

Structure (SMILES)	IC50 ([1]; Homo sapiens, MIA PaCa-2, 2 h)	Coupled exchange IC50 (5 min) [2]	IC50 [1]	IC50 ([1]; Homo sapiens)	IC50 [2]
C=CC(=O)N1CCN(c2nc(=O)n(-c3c(C)ccnc3C(C)C)c3nc(-c4c(F)ccc(C)c4O)c(F)cc23)[C@@H](C)C1 (atropisomer, axis not shown; (M)) [Example 72-10, (M)-6-fluoro-7-(6-fluoro-2-hydroxy-3-methylphenyl)-1-(4-methyl-2-(2-propanyl)-3-pyridinyl)-4-((2S)-2-methyl-4-(2-propenoyl)-1-piperazinyl)pyrido[2,3-d]pyrimidin-2(1H)-one]	150 nM	0.158 | nda μM	–	–	–
C=CC(=O)N1CCN(c2nc(=O)n(-c3c(C4CC4)ncnc3C3CC3)c3nc(-c4c(O)cccc4F)c(Cl)cc23)[C@@H](C)C1 [Example 60-29, 6-chloro-1-(4,6-dicyclopropyl-5-pyrimidinyl)-7-(2-fluoro-6-hydroxyphenyl)-4-((2S)-2-methyl-4-(2-propenoyl)-1-piperazinyl)pyrido[2,3-d]pyrimidin-2(1H)-one]	–	–	–	36 nM	34 nM
C=CC(=O)N1CCN(c2nc(=O)n(-c3cccnc3C(C)C)c3nc(-c4c(O)cccc4F)c(Cl)cc23)[C@@H](C)C1 (single isomer, unassigned) [Example 54-11-1]	–	0.049 | nda μM	54 nM	–	–
C=CC(=O)N1CCN(c2nc(=O)n(-c3ncsc3C(C)C)c3nc(-c4c(O)cccc4F)c(Cl)cc23)[C@@H](C)C1 [Example 55-17, 6-chloro-7-(2-fluoro-6-hydroxyphenyl)-4-((2S)-2-methyl-4-(2-propenoyl)-1-piperazinyl)-1-(5-(2-propanyl)-1,3-thiazol-4-yl)pyrido[2,3-d]pyrimidin-2(1H)-one]	123 nM	0.18 | nda μM	–	–	–
C=CC(=O)N1CCN(c2nc(=O)n(-c3ccccc3C(C)C)c3nc(-c4nc(N)ccc4Cl)c(Cl)cc23)[C@@H](C)C1 [Example 70-1, 7-(6-Amino-3-chloro-2-pyrindinyl)-6-chloro-4-((2S)-2-methyl-4-(2-propenoyl)-1-piperazinyl)-1-(2-(2-propanyl)phenyl)pyrido[2,3-d]pyrimidin-2(1H)-one]	225 nM	0.225 | nda μM	–	–	–
C=CC(=O)N1CCN(c2nc(=O)n(-c3c(OC)ncnc3C(C)C)c3nc(-c4ccccc4F)c(Cl)cc23)[C@@H](C)C1 (single isomer, unassigned) [Example 54-107-2]	48 nM	0.067 | nda μM	–	–	–
C=CC(=O)N1CCN(c2nc(=O)n(-c3cncnc3C(C)C)c3nc(-c4c(O)cccc4F)c(Cl)cc23)[C@@H](C)C1 [Example 54-26, 6-chloro-7-(2-fluoro-6-hydroxy-phenyl)-4-((2S)-2-methyl-4-(2-propenoyl)-1-piperazinyl)-1-(4-(2-propanyl)-5-pyrimidinyl) pyrido[2,3-d]pyrimidin-2(1H)-one]	220 nM	0.105 | nda μM	–	–	–
C=CC(=O)N1CCN(c2nc(=O)n(-c3c(C)cc(C(=O)OC)cc3C(C)C)c3nc(-c4ccccc4F)c(Cl)cc23)[C@@H](C)C1 [Example 156, Methyl 4-(6-chloro-7-(2-fluorophenyl)-4-((2S)-2-methyl-4-(2-propenoyl)-1-piperazinyl)-2-oxopyrido[2,3-d]pyrimidin-1(2H)-yl)-3-methyl-5-(2-propanyl)benzoate]	80 nM	0.057 | nda μM	–	–	–
C=CC(=O)N1CCN(c2nc(=O)n(-c3c(C)cc[n+]([O-])c3C(C)C)c3nc(-c4ccccc4F)c(Cl)cc23)C(C)C1 (atropisomer, axis not shown; (M)) [Example 151, (M)-6-Chloro-7-(2-fluorophenyl)-1-(4-methyl-1-oxido-2-(2-propanyl)-3-pyridinyl)-4-((2S)-2-methyl-4-(2-propenoyl)-1-piperazinyl)pyrido[2,3-d]pyrimidin-2(1H)-one]	237 nM	0.065 | nda μM	–	–	–
C=CC(=O)N1CCN(c2nc(=O)n(C3CCC34CCCC4)c3nc(-c4c(O)cccc4F)c(Cl)cc23)[C@@H](C)C1 (stereo partly drawn) [Example 60-9, 6-chloro-7-(2-fluoro-6-hydroxyphenyl)-4-((2S)-2-methyl-4-(2-propenoyl)-1-piperazinyl)-1-(spiro[3.4]octan-1-yl)pyrido[2,3-d]pyrimidin-2(1H)-one]	1600 nM	0.484 | nda μM	–	–	–
C=CC(=O)N1CCN(c2nc(=O)n(-c3ccccc3C(C)C)c3cc(-c4ccccc4F)c(Cl)nc23)[C@@H](C)C1 [Example 110, 6-Chloro-7-(2-fluorophenyl)-4-((2S)-2-methyl-4-(2-propenoyl)-1-piperazinyl)-1-(2-(2-propanyl)phenyl)pyrido[3,2-d]pyrimidin-2(1H)-one]	426 nM	0.166 | nda μM	–	–	–
C=CC(=O)N1CCN(c2nc(=O)n(-c3ccnn3C(C)C)c3nc(-c4c(O)cccc4F)c(Cl)cc23)[C@@H](C)C1 [Example 54-25, 6-chloro-7-(2-fluoro-6-hydroxy-phenyl)-4-((2S)-2-methyl-4-(2-propenoyl)-1-piperazinyl)-1-(1-(2-propanyl)-1H-pyrazol-5-yl)pyrido[2,3-d]pyrimidin-2(1H)-one]	218 nM	–	–	–	164 nM
C=CC(=O)N1CCN(c2nc(=O)n(-c3c(C)cccc3C3CC3)c3nc(-c4c(O)cccc4F)c(F)cc23)[C@@H](C)C1 [Example 58-13, 1-(2-cyclopropyl-6-methylphenyl)-6-fluoro-7-(2-fluoro-6-hydroxyphenyl)-4-((2S)-2-methyl-4-(2-propenoyl)-1-piperazinyl)pyrido[2,3-d]pyrimidin-2(1H)-one]	263 nM	0.809 | nda μM	–	–	–
C=CC(=O)N1CCN(c2nc(=O)n(-c3c(C)cccc3C(C)C)c3nc(-c4cc(F)c(F)cc4O)c(Cl)cc23)[C@@H](C)C1 (single isomer, unassigned) [Example 64-2]	258 nM	0.151 | nda μM	–	–	–
C=CC(=O)N1CCN(c2nc(=O)n(-c3c(C)ccnc3C(C)C)c3nc(-c4cc(F)c(F)cc4O)c(F)cc23)[C@@H](C)C1 (atropisomer, axis not shown; (M)) [Example 72-2, (M)-7-(4,5-difluoro-2-hydroxyphenyl)-6-fluoro-1-(4-methyl-2-(2-propanyl)-3-pyridinyl)-4-((2S)-2-methyl-4-(2-propenoyl)-1-piperazinyl)pyrido[2,3-d]pyrimidin-2(1H)-one]	595 nM	0.534 | nda μM	–	–	–
C=CC(=O)N1CCN(c2nc(=O)n(-c3c(N)cccc3C(C)C)c3nc(-c4ccccc4F)c(Cl)cc23)[C@@H](C)C1 [Example 155, 1-(2-Amino-6-(2-propanyl)phenyl)-6-chloro-7-(2-fluorophenyl)-4-((2S)-2-methyl-4-(2-propenoyl)-1-piperazinyl)pyrido[2,3-d]pyrimidin-2(1H)-one]	103 nM	0.108 | nda μM	–	–	–

Reference: patent US11090304B2 (Amgen Inc., priority 2018, dated 2021)
